From patent US8791163B2 (McGill University, priority 2006, dated 2014)
“And” between values parts separate entries of the source, which are not always exact repeats. Equal entries are not always repeated.

Assays:
[1] = tested on: dorsal raphe 5-HT neurons; experiment: In vivo electrophysiological recording of 5-HT firing activity; set-up: species or system rat
Description: Serotonin (5-HT) neurons are implicated in the regulation of mood (for a review see Gobbi G, (2005) Inter. Rev. Neurobiology 65: 249-271). The increase in serotonergic neurotransmission is linked to the action of antidepressant drugs. For example fluoxetine (Prozac) increases the 5-HT availability by blocking its […]; mirtazapine (Remeron) increases 5-HT firing activity via an indirect alpha-2 receptor blockade. Consequently, in order to test if compound 5b increases the 5-HT firing activity, in vivo 5-HT neuron activity was recorded after single (40 or 80 mg/kg, subcutaneous) and repeated injections with compound 5b (40 mg/kg, i.p. once a day, for 4 days). For animals treated with a single injection (acute) the recording was done immediately following the injection. For animals treated with repeated injection (sub-chronic) the recording was done 24 hours after the last injection (FIG. 6).
Rats (Sprague-Dawley) were anesthetized with chloral hydrate (400 mg/kg i.p.) and placed in a stereotaxic frame (David Kopf Instruments) with the skull positioned horizontally. To maintain a full anesthetic state in which there is no reaction to a tail or paw pinch, chloral hydrate supplements of 100 mg/kg were given as needed. A burr hole was drilled in the midline, 0.9 to 1.2 mm anterior to interaural zero (Paxinos, G. and Watson, C. (1982); The rat brain in Stereotaxic Coordinates; Academy, Sydney). Dorsal raphe was encountered just below the Sylvius aqueduct, 5.0 to 6.5 mm ventral to dura mater. The dorsal raphe 5-HT neurons, in physiological conditions, were identified according to the following criteria: a slow (0.5-2.5 Hz) and regular firing rate; and a long-duration (0.8-1.2 ms) positive action potential (Baraban and Aghajanian (1980) Neuropharmacology 19, 355-363). Neuronal activity was recorded and processed by a computer connected to CED1401 interface-Spike 2 software (Cambridge Electronic Design, Cambridge, UK).

[2] = biological target: T1, cloned human MT2 receptors (Homo sapiens, UniProt P49286); experiment: [35S]GTPγS binding assay, NIH3T3 cells expressing human MT2; format: biochemical; conditions: maximal net effect relative to MLT
T1 construct: expressed in transfected cells
T1 sequence (P49286 1-362): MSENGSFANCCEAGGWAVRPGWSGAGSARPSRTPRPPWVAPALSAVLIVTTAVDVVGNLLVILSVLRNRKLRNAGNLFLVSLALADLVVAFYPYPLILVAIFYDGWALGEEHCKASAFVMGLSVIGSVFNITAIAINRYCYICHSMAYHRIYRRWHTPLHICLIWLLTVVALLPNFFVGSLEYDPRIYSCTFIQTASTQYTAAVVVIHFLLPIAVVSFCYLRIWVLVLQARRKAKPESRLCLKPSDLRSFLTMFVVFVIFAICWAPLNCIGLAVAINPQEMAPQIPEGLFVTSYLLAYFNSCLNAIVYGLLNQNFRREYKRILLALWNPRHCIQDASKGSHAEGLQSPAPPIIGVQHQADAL

Sprague Dawley rats = experiment: Novelty-Induced Suppressed Feeding (NSF) Test; format: in vivo, rat; conditions: for Latency (sec) to feed: 60 min before the test
Protocol: The NSF test is used to assess the anti-anxiety effect of a drug [Bodnoff et al. Psychopharmacology 1988, 95(3), 298-307]. Sprague Dawley rats were used in the NSF test. The testing apparatus comprises a brightly lit open area covered with lab chow pellets. Forty-eight hours prior to behavioral testing, all food was removed from the apparatus. Animals treated with compound 5b (40 or 80 mg/kg) were injected 60 min before the test, whereas animals treated with vehicle (DMSO/saline 7:3) or diazepam were injected 45 min before the test. The drugs were administered subcutaneously and the experiments were conducted after 5:30 PM. The latency to feed, defined as chewing the food as opposed to merely sniffing or playing with a pellet, was then recorded (Table 6). The experiment was terminated for those animals that had not begun eating within a period of 360 seconds, which animals were assigned a latency score of 360 seconds. All analyses were conducted using Sigma Stats and SPSS software. The results are expressed as the mean±SEM per n (number) animals tested (*, p<0.01, ANOVA or t test).

[3] = tested on: Adult Sprague Dawley rats; experiment: Elevated plus maze (EPM); format: in vivo, rat; conditions: for Head Dips / Percentage of time in Closed Arms / Percentage of time in Open Arms / Total time duration in the Closed Arms / Total time duration in the Open Arms: injected 60 min before test
Protocol: The maze is comprised of two open arms (50×10 cm) and two closed arms (50×10×40 cm) that extend from a common central platform (10×10 cm). The apparatus, made of wood (painted black) was elevated to a height of 80 cm above floor level. The closed arms are located opposite one another. Behavior is recorded over a period of 5 min using a video camera positioned directly above the maze and rated by an observer blind to drug conditions. The major measure of interest is the amount of time spent in the open arms. As an index of general activity and distribution, the total number of entries into both open and closed arms was also recorded. […] In order to increase the sensitivity of this test to anxiolytic activity, tests are carried out under normal room illumination (25 W bulb).

[4] = 5b 40, 60 and 80 mg/kg, injected 60 min before the test, vs vehicle

SMILES: COc1cccc(N(CCNC(C)=O)c2ccccc2)c1 [5b, N-{2-[(3-Methoxyphenyl)-phenylamino]ethyl}acetamide]
- increase of spontaneous activity of 5-HT neurons ([1]; acute single injection 40 mg/kg subcutaneous): 40%
- 5-HT neuron firing rate ([1]; acute single injection 40 mg/kg subcutaneous (control 0.66 Hz)): 0.93 Hz
- increase of spontaneous activity of 5-HT neurons ([1]; acute single injection 80 mg/kg subcutaneous): 106%
- 5-HT neuron firing rate ([1]; acute single injection 80 mg/kg subcutaneous (control 0.66 Hz)): 1.36 Hz
- increase of spontaneous activity of 5-HT neurons ([1]; sub-chronic 40 mg/kg i.p. once a day for 4 days, recorded 24 h after last injection): 133%
- 5-HT neuron mean firing rate ([1]; sub-chronic 40 mg/kg once a day for 4 days, recorded 24 h after last injection (control 1.2 Hz)): 2.8 Hz and 2.80 Hz
- MT2 IAr ± SEM (relative intrinsic activity) [2]: 0.6 and 0.61 ± 0.04
- Latency (sec) to feed (Sprague Dawley rats; 5b 40 mg/kg s.c.): 106.75 ± 10.13 (P ≦ 0.001)* sec
- Latency (sec) to feed (Sprague Dawley rats; 5b 80 mg/kg s.c.): 115.28 ± 13.89 (P ≦ 0.001)* sec
- latency to feed (FIG. 5) (Sprague Dawley rats; 5b 40 and 80 mg/kg, injected 60 min before the test, vs vehicle): decreased latency to feed
- Head Dips ([3]; 5b 40 mg/kg): 6.30 ± 0.98
- Percentage of time in Closed Arms ([3]; 5b 40 mg/kg): 82.30 ± 2.63%
- Percentage of time in Open Arms ([3]; 5b 40 mg/kg): 17.7 ± 2.6%
- Total time duration in the Closed Arms ([3]; 5b 40 mg/kg): 219.4 ± 9.38 sec/closed arm
- Total time duration in the Open Arms ([3]; 5b 40 mg/kg): 47.4 ± 6.86 sec/open arm
- Head Dips ([3]; 5b 60 mg/kg): 8.27 ± 1.42
- Percentage of time in Closed Arms ([3]; 5b 60 mg/kg): 74.47 ± 4.06 (P = 0.02) %
- Percentage of time in Open Arms ([3]; 5b 60 mg/kg): 25.5 ± 4.1 (P = 0.02) %
- Total time duration in the Closed Arms ([3]; 5b 60 mg/kg): 199.83 ± 11.33 (P = 0.01) sec/closed arm
- Total time duration in the Open Arms ([3]; 5b 60 mg/kg): 68.93 ± 11.02 (P = 0.02) sec/open arm
- Head Dips ([3]; 5b 80 mg/kg): 9.91 ± 1.50 (P = 0.02)
- Percentage of time in Closed Arms ([3]; 5b 80 mg/kg): 68.18 ± 4.84 (P = 0.007) %
- Percentage of time in Open Arms ([3]; 5b 80 mg/kg): 31.8 ± 4.8 (P = 0.003) %
- Total time duration in the Closed Arms ([3]; 5b 80 mg/kg): 181.68 ± 14.32 (P = 0.006) sec/closed arm
- Total time duration in the Open Arms ([3]; 5b 80 mg/kg): 79.16 ± 12.0 (P = 0.001) sec/open arm
- number of head dips (FIG. 4) ([3]; 5b 40, 60 and 80 mg/kg, injected 60 min before the test): increase in the number of head dips
- time in the open arms, percentage of time (FIG. 3) [3, 4]: spent more time in the open arms
- time in the open arms, total time expressed in seconds (FIG. 2) [3, 4]: spent more time in the open arms
